From patent US20060286173A1, “Drug delivery system for sub-tenon s capsule adminstration of fine grains” (priority 2003, published 2006)

Assay: In vitro drug release test
Format: physicochemical
Conditions: 0.1 M phosphate buffer pH 7.4, 37° C.
Description: This mixture was placed in a glass vessel, and thereto was added 98.5 mL of 0.1 M phosphate buffer (pH 7.4). The entire mixture was shaken in a water bath at 37° C., and the in vitro drug release test was started. […] As a control, the powder of each drug in the same amount was charged into the chamber described above, and the release test was conducted in the same manner.
2) On day 1, 2, 6, 14, 29 after starting the test, the buffer was sampled in its entirety, which was analyzed using high performance liquid chromatography. Also, after the sampling, 98.5 mL of 0.1 M phosphate buffer (pH 7.4) was freshly added, and the release test was continued.

In vitro drug release rate (%) (Day 1): 57.6%
In vitro drug release rate (%) (Day 2): 73.4%
Structure (SMILES): CC1(C)O[C@@H]2C[C@H]3[C@@H]4C[C@H](F)C5=CC(=O)C=C[C@]5(C)[C@@]4(F)[C@@H](O)C[C@]3(C)[C@]2(C(=O)CO)O1 [Fluocinolone acetonide powder, fluocinolone acetonide]
